From patent US20160377635A1, “Measurement of Oxytocin and Vasopressin” (Martin-Protean LLC, priority 2013, published 2016)

How the values were obtained:
albumin = albumin (Homo sapiens, UniProt P02768); assay: incubation with free thiol containing albumin, acetone precipitation; assay type: in vitro ADME
Description: (§1) Oxytocin and vasopressin undergo disulfide exchange with abundant thiol containing compounds under aerobic conditions like those found in blood plasma. […] If albumin (1 mM) is added to that mixture all detectable oxytocin and vasopressin sequester with albumin upon acetone precipitation. Oxytocin immunoreactivity in plasma is associated with high molecular weight species (Szeto et al). When beta-mercaptoethanol (1 M) and histamine (30 mM) are added to plasma, oxytocin and vasopressin in the 1-100 nM range were recovered rather than the 1-100 pM range recovered without thiols or reported routinely with existing commercially available immunoreactivity tests. The mid nanomolar range is much more consistent with the concentrations required in biological assays for these compounds, such as inducing the lactation reflect with rabbit mammary tissue. Nanomolar concentrations for oxytocin and vasopressin are also far more consistent with the doses required for either peptide in intervention regimes.
Acetone extraction of the incubation clears oxytocin and vasopressin from the solution into the pellet with the albumin. In one embodiment, exceptionally short half-life of oxytocin is measured with immunoreactivity on acetone extracted fractions. Observation of disulfide exchange mediated accumulation of oxytocin on high molecular weight proteins in the plasma.

[1] = disulfide exchange with plasma thiols in the presence of air; assay type: physicochemical
Description: as §1
Incubating oxytocin and vasopressin them with glutathione at its plasma concentration in the presence of air (as in blood) induces oxytocin and vasopressin to disulfide exchange with glutathione and undergo additional oxidation resulting in the accumulation of diglutathione adducts (FIGS. 4A-C). This additional oxidation-containing product accumulates even in the presence of a vast excess of reducing equivalents in the form of remaining excess reduced glutathione. The introduction of air lead to a disulfide exchange result distinct from that observed in the published literature. The disulfide exchange is inhibited by EDTA which is added to most blood as a preservative. In the body the hormones undergo exchange, but in collected blood the EDTA will inhibit diglutathione formation unless the redox state of the collected blood is perturbed, as FIG. 5.

[2] = tested on: excised and bathed section of mammary gland tissue; details: cited from earlier work
[3] = reduced glutathione (1 mM) and oxygen, peptide ~10 nM
[4] = reduced glutathione, reduced cysteine (0.5 mM) and oxygen

albumin, sequence (P02768 25-609, species assumed): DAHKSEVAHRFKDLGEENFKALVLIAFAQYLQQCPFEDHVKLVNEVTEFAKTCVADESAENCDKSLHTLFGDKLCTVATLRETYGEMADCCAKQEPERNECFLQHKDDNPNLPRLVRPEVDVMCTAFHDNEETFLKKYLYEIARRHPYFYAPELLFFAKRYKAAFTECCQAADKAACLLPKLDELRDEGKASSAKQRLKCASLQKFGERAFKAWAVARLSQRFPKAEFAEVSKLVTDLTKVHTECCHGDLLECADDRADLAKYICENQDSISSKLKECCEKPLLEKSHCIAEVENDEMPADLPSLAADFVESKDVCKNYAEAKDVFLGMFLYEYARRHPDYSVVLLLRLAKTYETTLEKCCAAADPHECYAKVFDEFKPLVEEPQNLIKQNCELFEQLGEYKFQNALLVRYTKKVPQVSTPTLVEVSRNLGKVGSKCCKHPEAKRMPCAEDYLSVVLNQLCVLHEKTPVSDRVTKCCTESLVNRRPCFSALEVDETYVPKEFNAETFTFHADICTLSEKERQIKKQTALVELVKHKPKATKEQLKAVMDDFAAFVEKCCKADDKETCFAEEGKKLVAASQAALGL

Row | adsorption to albumin (albumin; pH 7.4) | SMILES | adsorption to albumin (albumin; pH 7.4, room temperature (or 37° C.), with or without glutathione and cysteine) | adduct formation by disulfide exchange [1, 3] | adduct formation by disulfide exchange [1, 4] | linear response range for contraction response [2] [ng/mL]
1 |  | NC(=O)CC[C@@H]1NC(=O)[C@H](Cc2ccccc2)NC(=O)[C@H](Cc2ccc(O)cc2)NC(=O)[C@@H](N)CSSC[C@@H](C(=O)N2CCC[C@H]2C(=O)N[C@@H](CCCN=C(N)N)C(=O)NCC(N)=O)NC(=O)[C@H](CC(N)=O)NC1=O [vasopressin] | quantitative adsorption to albumin | form diglutathione adducts | form dicysteine adducts | 
2 | quantitative adsorption to albumin | CC[C@H](C)[C@@H]1NC(=O)[C@H](Cc2ccc(O)cc2)NC(=O)[C@@H](N)CSSC[C@@H](C(=O)N2CCC[C@H]2C(=O)N[C@@H](CC(C)C)C(=O)NCC(N)=O)NC(=O)[C@H](CC(N)=O)NC(=O)[C@H](CCC(N)=O)NC1=O [oxytocin] |  | form diglutathione adducts | form dicysteine adducts | 1 to 20
